According to PubChem BioAssay (NCI):
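Cells were grown in 96-well plates and exposed to each compound for 48 hours at five concentrations; endpoints were interpolated linearly between bracketing concentrations, or set to the highest concentration if not reached. Definition used: TGI = concentration required for complete inhibition of growth.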

Tests used:
Experiment in all cases: NCI anticancer screen, dose series, 48 h
786-0 renal = test system: 786-0 renal
A498 renal = test system: A498 renal
A549 NSCLC = test system: A549 NSCLC
ACHN renal = test system: ACHN renal
CAKI-1 renal = test system: CAKI-1 renal
CCRF-CEM leukemia = test system: CCRF-CEM leukemia
COLO 205 colon = test system: COLO 205 colon
DLD-1 colon = test system: DLD-1 colon
DMS 273 small cell lung = test system: DMS 273 small cell lung
EKVX NSCLC = test system: EKVX NSCLC
HCC-2998 colon = test system: HCC-2998 colon
HCT-116 colon = test system: HCT-116 colon
HCT-15 colon = test system: HCT-15 colon
HOP-18 NSCLC = test system: HOP-18 NSCLC
HOP-62 NSCLC = test system: HOP-62 NSCLC
HOP-92 NSCLC = test system: HOP-92 NSCLC
HT29 colon = test system: HT29 colon
IGROV1 ovarian = test system: IGROV1 ovarian
K-562 leukemia = test system: K-562 leukemia
KM12 colon = test system: KM12 colon
KM20L2 colon = test system: KM20L2 colon
LOX IMVI melanoma = test system: LOX IMVI melanoma
LXFL 529 NSCLC = test system: LXFL 529 NSCLC
M14 melanoma = test system: M14 melanoma
M19-MEL melanoma = test system: M19-MEL melanoma
MALME-3M melanoma = test system: MALME-3M melanoma
MOLT-4 leukemia = test system: MOLT-4 leukemia
NCI-H226 lung = test system: NCI-H226 lung
NCI-H23 lung = test system: NCI-H23 lung
NCI-H460 lung = test system: NCI-H460 lung
OVCAR-3 ovarian = test system: OVCAR-3 ovarian
OVCAR-4 ovarian = test system: OVCAR-4 ovarian
OVCAR-5 ovarian = test system: OVCAR-5 ovarian
RPMI-8226 leukemia = test system: RPMI-8226 leukemia
RXF 393 renal = test system: RXF 393 renal
RXF-631 renal = test system: RXF-631 renal
SF-268 CNS = test system: SF-268 CNS
SF-295 CNS = test system: SF-295 CNS
SF-539 CNS = test system: SF-539 CNS
SK-MEL-2 melanoma = test system: SK-MEL-2 melanoma
SK-MEL-28 melanoma = test system: SK-MEL-28 melanoma
SK-MEL-5 melanoma = test system: SK-MEL-5 melanoma
SK-OV-3 ovarian = test system: SK-OV-3 ovarian
SN12C renal = test system: SN12C renal
SNB-19 CNS = test system: SNB-19 CNS
SNB-75 CNS = test system: SNB-75 CNS
SNB-78 CNS = test system: SNB-78 CNS
SR leukemia = test system: SR leukemia
SW-620 colon = test system: SW-620 colon
TK-10 renal = test system: TK-10 renal
U251 CNS = test system: U251 CNS
UACC-257 melanoma = test system: UACC-257 melanoma
UACC-62 melanoma = test system: UACC-62 melanoma
UO-31 renal = test system: UO-31 renal
DMS 114 small cell lung = test system: DMS 114 small cell lung
HL-60(TB) leukemia = test system: HL-60(TB) leukemia
OVCAR-8 ovarian = test system: OVCAR-8 ovarian
XF 498 CNS = test system: XF 498 CNS

Measured: TGI

O=C(O)/C(Cl)=C(\Cl)C(=O)Nc1ccccc1
> 100 µM: 786-0 renal | A498 renal | A549 NSCLC | ACHN renal | CAKI-1 renal | CCRF-CEM leukemia | COLO 205 colon | DLD-1 colon | DMS 273 small cell lung | EKVX NSCLC | HCC-2998 colon | HCT-116 colon | HCT-15 colon | HOP-18 NSCLC | HOP-62 NSCLC | HOP-92 NSCLC | HT29 colon | IGROV1 ovarian | K-562 leukemia | KM12 colon | KM20L2 colon | LOX IMVI melanoma | LXFL 529 NSCLC | M14 melanoma | M19-MEL melanoma | MALME-3M melanoma | MOLT-4 leukemia | NCI-H226 lung | NCI-H23 lung | NCI-H460 lung | OVCAR-3 ovarian | OVCAR-4 ovarian | OVCAR-5 ovarian | RPMI-8226 leukemia | RXF 393 renal | RXF-631 renal | SF-268 CNS | SF-295 CNS | SF-539 CNS | SK-MEL-2 melanoma | SK-MEL-28 melanoma | SK-MEL-5 melanoma | SK-OV-3 ovarian | SN12C renal | SNB-19 CNS | SNB-75 CNS | SNB-78 CNS | SR leukemia | SW-620 colon | TK-10 renal | U251 CNS | UACC-257 melanoma | UACC-62 melanoma | UO-31 renal

COC(=O)C1C(=O)O[C@@H](c2ccc(OC)cc2OC)C1C(=O)OC (stereo not given in full)
> 100 µM: 786-0 renal | A498 renal | A549 NSCLC | ACHN renal | CAKI-1 renal | CCRF-CEM leukemia | COLO 205 colon | DLD-1 colon | DMS 114 small cell lung | DMS 273 small cell lung | EKVX NSCLC | HCC-2998 colon | HCT-116 colon | HCT-15 colon | HL-60(TB) leukemia | HOP-18 NSCLC | HOP-62 NSCLC | HOP-92 NSCLC | HT29 colon | IGROV1 ovarian | K-562 leukemia | KM12 colon | KM20L2 colon | LOX IMVI melanoma | LXFL 529 NSCLC | M14 melanoma | M19-MEL melanoma | MALME-3M melanoma | MOLT-4 leukemia | NCI-H226 lung | NCI-H23 lung | NCI-H460 lung | OVCAR-3 ovarian | OVCAR-4 ovarian | OVCAR-5 ovarian | OVCAR-8 ovarian | RPMI-8226 leukemia | RXF 393 renal | SF-268 CNS | SF-295 CNS | SF-539 CNS | SK-MEL-28 melanoma | SK-MEL-5 melanoma | SK-OV-3 ovarian | SN12C renal | SNB-19 CNS | SNB-75 CNS | SNB-78 CNS | SR leukemia | SW-620 colon | TK-10 renal | U251 CNS | UACC-257 melanoma | UACC-62 melanoma | UO-31 renal | XF 498 CNS
